Like-named read-outs stand apart in the source and are kept apart here.
Legend:
[1] = ingested more than 0.8 mg/kg; cited from earlier work
HBV GT C = assay: In vitro anti-HBV efficacy in HBV-infected PXB-cells; type: cell-based; details: for Extracellular HBeAg: Day 27, 10 fold diluted sample
Experimental: Materials & Methods: PXB-cells was infected with HBV GT C. […] The anti-HBV therapeutic efficacy was measured by the analysis of extracellular HBV DNA, HBsAg, HBeAg, h-Alb, and intracellular HBV DNA/cceDNA levels. Entecavir was used as the positive control. The hepatocytes isolated from 3 mice were combined to seed culture plate. The cell density of mixed cell was 7.37×10^6 cells/mL. PXB-cells® are the fresh hepatocytes which are isolated from PXB-mice. Cells viability after isolation: >80%. Donor Hepatocytes were purchased from Corning, Incorporated (Tewksbury, Mass., USA), Lot: BD195 ([…]). […] Entecavir was purchased from Santa-cruz, Lot: 10914, Concentration: 1 mM. Plates was observed under microscopy and photographed.

[2] = tested on: HBV-related postnecrotic cirrhosis; details: double-blind controlled trial, 100 patients; cited from earlier work
[3] = cited from earlier work; for Peak blood level (Cmax) / Exposure (area under the curve) / terminal half-life: fasted healthy volunteers; for mean Cmax: healthy adults, capsules orally
chronic Hepatitis B = details: 1 mg a day orally for 5 days-a-week over 6 months, cited from earlier work
liver fibrosis = details: rats with carbon tetrachloride induced cirrhosis; cited from earlier work

In the case of `COc1cc2c(c(OC)c1OC)-c1ccc(OC)c(=O)cc1[C@@H](NC(C)=O)CC2` [Colchicine, N [5,6,7,9-tetrahydro-1,2,3,10-tetratmethoxy 9-oxobenzo[a]heptalen-7-yl], (S)-acetamide], the mortality [1] is listed as 100%, the “Extracellular HBV DNA” value (HBV GT C; Colchicine 1 nM, Day 27) is listed as 7.06 Log copies/mL and the “Extracellular HBsAg” value (HBV GT C; Colchicine 1 nM, Day 27) is listed as 23.1 IU/mL. The “Intracellular HBV DNA” value (HBV GT C; Colchicine 1 nM, Day 27) was 250511 copies/100 ng DNA, the “Intracellular cccDNA” value (HBV GT C; Colchicine 1 nM, Day 27) was 217 copies/100 ng DNA and the “Extracellular HBeAg” value (HBV GT C; Colchicine 1 nM) was 14.7 C.O.I. For the same compound, the “Extracellular HBV DNA” value (HBV GT C; Colchicine 2 nM, Day 27) was 7.06 Log copies/mL, the “Extracellular HBsAg” value (HBV GT C; Colchicine 2 nM, Day 27) was 23.5 IU/mL and the “Intracellular HBV DNA” value (HBV GT C; Colchicine 2 nM, Day 27) was 235131 copies/100 ng DNA. For the same compound, the “Intracellular cccDNA” value (HBV GT C; Colchicine 2 nM, Day 27) was 207 copies/100 ng DNA, the “Extracellular HBeAg” value (HBV GT C; Colchicine 2 nM) was 16.2 C.O.I and the “Extracellular HBV DNA” value (HBV GT C; Colchicine 3.9 nM, Day 27) was 7.16 Log copies/mL. For the same compound, the “Extracellular HBsAg” value (HBV GT C; Colchicine 3.9 nM, Day 27) was 26.7 IU/mL, the “Intracellular HBV DNA” value (HBV GT C; Colchicine 3.9 nM, Day 27) was 282895 copies/100 ng DNA and the “Intracellular cccDNA” value (HBV GT C; Colchicine 3.9 nM, Day 27) was 247 copies/100 ng DNA. For the same compound, the “Extracellular HBeAg” value (HBV GT C; Colchicine 3.9 nM) was 19.2 C.O.I, the “Extracellular HBV DNA” value (HBV GT C; Colchicine 7.8 nM, Day 27) was 7.06 Log copies/mL and the “Extracellular HBsAg” value (HBV GT C; Colchicine 7.8 nM, Day 27) was 25.5 IU/mL. The “Intracellular HBV DNA” value (HBV GT C; Colchicine 7.8 nM, Day 27) was 270324 copies/100 ng DNA, the “Intracellular cccDNA” value (HBV GT C; Colchicine 7.8 nM, Day 27) was 227 copies/100 ng DNA and the “Extracellular HBeAg” value (HBV GT C; Colchicine 7.8 nM) was 17.4 C.O.I. The “Extracellular HBV DNA” value (HBV GT C; Colchicine 15.6 nM, Day 27) was 6.86 Log copies/mL, the “Extracellular HBsAg” value (HBV GT C; Colchicine 15.6 nM, Day 27) was 25.2 IU/mL and the “Intracellular HBV DNA” value (HBV GT C; Colchicine 15.6 nM, Day 27) was 256994 copies/100 ng DNA. For the same compound, the “Intracellular cccDNA” value (HBV GT C; Colchicine 15.6 nM, Day 27) was 261 copies/100 ng DNA, the “Extracellular HBeAg” value (HBV GT C; Colchicine 15.6 nM) was 16.3 C.O.I and the “Extracellular HBV DNA” value (HBV GT C; Colchicine 31.3 nM, Day 27) was 6.06 Log copies/mL. The “Extracellular HBsAg” value (HBV GT C; Colchicine 31.3 nM, Day 27) was 2.17 IU/mL, the “Intracellular HBV DNA” value (HBV GT C; Colchicine 31.3 nM, Day 27) was 52249 copies/100 ng DNA and the “Intracellular cccDNA” value (HBV GT C; Colchicine 31.3 nM, Day 27) was 80 copies/100 ng DNA. For the same compound, the “Extracellular HBeAg” value (HBV GT C; Colchicine 31.3 nM) was 3.6 C.O.I, the “Extracellular HBV DNA” value (HBV GT C; Colchicine 62.5 nM, Day 27) was 4.86 Log copies/mL and the “Extracellular HBsAg” value (HBV GT C; Colchicine 62.5 nM, Day 27) was 0.12 IU/mL. The “Intracellular HBV DNA” value (HBV GT C; Colchicine 62.5 nM, Day 27) was 9638 copies/100 ng DNA, the “Intracellular cccDNA” value (HBV GT C; Colchicine 62.5 nM, Day 27) was “+” and the “Extracellular HBeAg” value (HBV GT C; Colchicine 62.5 nM) was 0.7 C.O.I. The “Extracellular HBV DNA” value (HBV GT C; Colchicine 125 nM, Day 27) was 4.86 Log copies/mL, the “Extracellular HBsAg” value (HBV GT C; Colchicine 125 nM, Day 27) was <0.05 IU/mL and the “Intracellular HBV DNA” value (HBV GT C; Colchicine 125 nM, Day 27) was 8341 copies/100 ng DNA. The “Intracellular cccDNA” value (HBV GT C; Colchicine 125 nM, Day 27) was “+”, the “Extracellular HBeAg” value (HBV GT C; Colchicine 125 nM) was 0.3 C.O.I and the “Extracellular HBV DNA” value (HBV GT C; Colchicine 250 nM, Day 27) was 4.86 Log copies/mL. The “Extracellular HBsAg” value (HBV GT C; Colchicine 250 nM, Day 27) was <0.05 IU/mL, the “Intracellular HBV DNA” value (HBV GT C; Colchicine 250 nM, Day 27) was 9187 copies/100 ng DNA and the “Intracellular cccDNA” value (HBV GT C; Colchicine 250 nM, Day 27) was “+”. The “Extracellular HBeAg” value (HBV GT C; Colchicine 250 nM) was 0.2 C.O.I, the “Extracellular HBV DNA” value (HBV GT C; Colchicine 500 nM, Day 27) was 4.86 Log copies/mL and the “Extracellular HBsAg” value (HBV GT C; Colchicine 500 nM, Day 27) was <0.05 IU/mL. For the same compound, the “Intracellular HBV DNA” value (HBV GT C; Colchicine 500 nM, Day 27) was 9019 copies/100 ng DNA, the “Intracellular cccDNA” value (HBV GT C; Colchicine 500 nM, Day 27) was “+” and the “Extracellular HBeAg” value (HBV GT C; Colchicine 500 nM) was 0.2 C.O.I. The “Extracellular HBV DNA” value (HBV GT C; Colchicine 1000 nM, Day 27) was 4.86 Log copies/mL, the “Extracellular HBsAg” value (HBV GT C; Colchicine 1000 nM, Day 27) was <0.05 IU/mL and the “Intracellular HBV DNA” value (HBV GT C; Colchicine 1000 nM, Day 27) was 8717 copies/100 ng DNA. For the same compound, the “Intracellular cccDNA” value (HBV GT C; Colchicine 1000 nM, Day 27) was 29 copies/100 ng DNA, the “Extracellular HBeAg” value (HBV GT C; Colchicine 1000 nM) was 0.2 C.O.I and the anti-HBV efficacy (HBV GT C; HBV-infected PXB-cells, Day 27) was “anti-HBV efficacy in a dose dependent manner”. The “effect in the treatment of HBV-related postnecrotic cirrhosis” value [2] was “no effect”, the “Peak blood level (Cmax)” value ([3]; high-dose (1.2 mg followed by 0.6 mg every hour for 6 h; 4.8 mg total)) was 6.84 ng/mL and the “Exposure (area under the curve)” value ([3]; high-dose (4.8 mg total)) was 118.2 ng/h/mL. For the same compound, the terminal half-life ([3]; high-dose (4.8 mg total)) was 31.4 h, the “Peak blood level (Cmax)” value ([3]; low-dose (1.2 mg followed by 0.6 mg in 1 h; 1.8 mg total)) was 6.19 ng/mL and the “Exposure (area under the curve)” value ([3]; low-dose (1.8 mg total)) was 52.1 ng/h/mL. For the same compound, the terminal half-life ([3]; low-dose (1.8 mg total)) was 23.6 h, the “Exposure (area under the curve)” value ([3]; single dose (0.6 mg)) was 14.1 ng/h/mL and the terminal half-life ([3]; single dose (0.6 mg)) was 6.36 h. For the same compound, the “mean Cmax” value ([3]; 0.6 mg single dose) was 3 ng/mL, the “mean Cmax” value ([3]; 1.0 mg single dose) was 6.50 ± 1.03 ng/mL and the Absolute bioavailability ([3]; human, in vivo) was “approximately 45%”. For the same compound, the “patients failed (response rate)” value (chronic Hepatitis B; pilot study) was 3 of 7, the “sustained response, treated patients” value (chronic Hepatitis B; two-center trial, 4 of 6 treated patients) was 66.6% and the liver fibrosis (liver fibrosis) was “decrease liver fibrosis”.
